In ChEMBL document CHEMBL5291721, “A preclinical secondary pharmacology resource illuminates target-adverse drug reaction associations of marketed drugs” (Nat Commun, 2023) one finds AC50 data, which are given here for 19 compounds.

The target in assay [1] is Neuronal acetylcholine receptor subunit alpha-4 (Homo sapiens, UniProt P43681).
Assay [2] deals with Beta-2 adrenergic receptor (Homo sapiens, UniProt P07550).
The target in assay [3] is Muscarinic acetylcholine receptor M3 (Homo sapiens, UniProt P20309).
Assay [4] addresses T1, 5-hydroxytryptamine receptor 1A (Homo sapiens, UniProt P08908).
T1 sequence (P08908 whole entry): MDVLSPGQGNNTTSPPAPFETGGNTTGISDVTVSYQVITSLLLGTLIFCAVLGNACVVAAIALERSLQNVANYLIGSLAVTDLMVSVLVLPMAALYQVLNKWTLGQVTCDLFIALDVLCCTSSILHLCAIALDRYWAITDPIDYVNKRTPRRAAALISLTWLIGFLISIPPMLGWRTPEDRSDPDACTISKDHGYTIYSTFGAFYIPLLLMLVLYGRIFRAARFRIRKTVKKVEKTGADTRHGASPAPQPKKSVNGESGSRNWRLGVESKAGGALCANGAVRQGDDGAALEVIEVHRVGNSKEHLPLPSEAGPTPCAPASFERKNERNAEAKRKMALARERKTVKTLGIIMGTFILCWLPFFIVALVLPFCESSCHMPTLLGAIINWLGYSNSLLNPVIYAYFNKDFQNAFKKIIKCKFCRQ
The class given is functional, cell-based.

Assay [5] has as its target 5-hydroxytryptamine receptor 2A (Homo sapiens, UniProt P28223). Type of assay: functional, cell-based.
The next assay concerns the target T2, Progesterone receptor (Homo sapiens, UniProt P06401).
T2 sequence (P06401 whole entry): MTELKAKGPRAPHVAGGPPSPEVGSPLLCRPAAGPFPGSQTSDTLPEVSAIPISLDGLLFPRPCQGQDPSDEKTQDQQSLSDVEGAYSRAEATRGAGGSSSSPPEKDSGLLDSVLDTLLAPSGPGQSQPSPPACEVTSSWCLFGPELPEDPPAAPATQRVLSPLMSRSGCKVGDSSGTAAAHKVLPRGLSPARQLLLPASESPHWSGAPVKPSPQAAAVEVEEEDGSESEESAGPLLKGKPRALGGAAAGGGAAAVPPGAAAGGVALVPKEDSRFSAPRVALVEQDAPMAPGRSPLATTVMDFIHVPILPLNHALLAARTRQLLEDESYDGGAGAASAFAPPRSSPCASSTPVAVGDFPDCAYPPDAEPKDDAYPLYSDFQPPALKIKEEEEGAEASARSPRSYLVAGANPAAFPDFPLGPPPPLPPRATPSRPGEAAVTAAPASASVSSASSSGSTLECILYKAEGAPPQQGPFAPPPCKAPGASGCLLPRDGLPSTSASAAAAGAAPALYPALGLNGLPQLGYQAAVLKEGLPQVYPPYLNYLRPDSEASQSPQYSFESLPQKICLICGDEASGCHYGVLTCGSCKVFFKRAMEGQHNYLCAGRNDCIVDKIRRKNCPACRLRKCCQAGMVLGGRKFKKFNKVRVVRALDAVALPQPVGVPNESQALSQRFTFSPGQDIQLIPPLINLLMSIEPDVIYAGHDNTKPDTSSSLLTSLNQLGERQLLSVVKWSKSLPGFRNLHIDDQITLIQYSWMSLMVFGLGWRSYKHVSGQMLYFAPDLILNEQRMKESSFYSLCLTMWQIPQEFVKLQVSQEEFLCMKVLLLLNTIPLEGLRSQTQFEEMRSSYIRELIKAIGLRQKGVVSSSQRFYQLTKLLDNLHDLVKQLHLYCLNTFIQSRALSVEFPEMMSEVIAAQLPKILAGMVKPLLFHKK
The class given is functional.

The target of assay [6] is T3, Neuropeptide Y receptor type 1 (Homo sapiens, UniProt P25929).
T3 sequence (P25929 whole entry): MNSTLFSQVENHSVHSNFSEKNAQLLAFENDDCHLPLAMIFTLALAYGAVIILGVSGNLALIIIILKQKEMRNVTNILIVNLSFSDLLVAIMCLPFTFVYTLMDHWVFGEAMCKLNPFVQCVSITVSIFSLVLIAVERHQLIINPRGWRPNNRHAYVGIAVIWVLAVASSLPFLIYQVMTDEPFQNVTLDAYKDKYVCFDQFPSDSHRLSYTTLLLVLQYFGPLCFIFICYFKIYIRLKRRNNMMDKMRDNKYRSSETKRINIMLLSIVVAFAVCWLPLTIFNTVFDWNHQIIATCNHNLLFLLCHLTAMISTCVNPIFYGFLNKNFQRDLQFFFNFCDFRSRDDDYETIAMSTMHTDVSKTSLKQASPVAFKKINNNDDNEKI

The target in a further assay is T4, Endothelin-1 receptor (Homo sapiens, UniProt P25101).
T4 sequence (P25101 whole entry): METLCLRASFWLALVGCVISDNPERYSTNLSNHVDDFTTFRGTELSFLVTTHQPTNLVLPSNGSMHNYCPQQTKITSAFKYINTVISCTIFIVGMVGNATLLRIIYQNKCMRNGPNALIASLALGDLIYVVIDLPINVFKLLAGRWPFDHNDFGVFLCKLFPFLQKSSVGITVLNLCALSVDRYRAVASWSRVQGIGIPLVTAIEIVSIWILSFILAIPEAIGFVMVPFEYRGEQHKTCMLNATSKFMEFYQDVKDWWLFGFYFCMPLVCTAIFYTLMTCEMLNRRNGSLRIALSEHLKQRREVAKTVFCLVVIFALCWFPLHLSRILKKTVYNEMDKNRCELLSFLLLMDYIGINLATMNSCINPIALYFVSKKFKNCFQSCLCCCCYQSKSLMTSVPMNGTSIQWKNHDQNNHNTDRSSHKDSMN

Assay [7] has as its target T5, Cholecystokinin receptor type A (Homo sapiens, UniProt P32238).
T5 sequence (P32238 whole entry): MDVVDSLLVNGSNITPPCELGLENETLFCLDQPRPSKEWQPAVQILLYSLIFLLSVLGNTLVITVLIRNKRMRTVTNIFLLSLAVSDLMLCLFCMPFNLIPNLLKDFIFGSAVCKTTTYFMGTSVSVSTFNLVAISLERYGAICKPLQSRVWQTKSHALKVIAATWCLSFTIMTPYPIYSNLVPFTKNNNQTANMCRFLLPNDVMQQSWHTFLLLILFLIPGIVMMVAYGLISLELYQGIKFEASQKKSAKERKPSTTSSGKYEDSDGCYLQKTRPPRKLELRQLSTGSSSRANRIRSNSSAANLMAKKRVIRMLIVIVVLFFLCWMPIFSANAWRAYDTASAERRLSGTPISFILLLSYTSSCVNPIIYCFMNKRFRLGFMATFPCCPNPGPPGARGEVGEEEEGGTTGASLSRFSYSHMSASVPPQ

The target in a further assay is Cannabinoid receptor 1 (Homo sapiens, UniProt P21554).
For another assay, the target named is Melanocortin receptor 4 (Homo sapiens, UniProt P32245).

Structures are written as SMILES.
Also: assay procedure not described here.

Sequence of Cannabinoid receptor 1 (P21554 whole entry): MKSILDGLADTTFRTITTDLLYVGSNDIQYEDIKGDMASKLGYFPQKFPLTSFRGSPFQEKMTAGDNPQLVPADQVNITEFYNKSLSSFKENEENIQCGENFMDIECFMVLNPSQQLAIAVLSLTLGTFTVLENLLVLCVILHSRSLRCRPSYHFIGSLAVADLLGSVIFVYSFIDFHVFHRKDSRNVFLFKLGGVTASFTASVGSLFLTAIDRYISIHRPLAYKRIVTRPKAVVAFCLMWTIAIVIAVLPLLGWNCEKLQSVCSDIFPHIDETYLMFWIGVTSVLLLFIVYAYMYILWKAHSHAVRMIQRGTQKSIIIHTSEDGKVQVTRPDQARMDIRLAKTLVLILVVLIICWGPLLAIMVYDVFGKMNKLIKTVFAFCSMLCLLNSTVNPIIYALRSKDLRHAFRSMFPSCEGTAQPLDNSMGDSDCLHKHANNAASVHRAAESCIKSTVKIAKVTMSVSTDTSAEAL
Sequence of Beta-2 adrenergic receptor (P07550 whole entry): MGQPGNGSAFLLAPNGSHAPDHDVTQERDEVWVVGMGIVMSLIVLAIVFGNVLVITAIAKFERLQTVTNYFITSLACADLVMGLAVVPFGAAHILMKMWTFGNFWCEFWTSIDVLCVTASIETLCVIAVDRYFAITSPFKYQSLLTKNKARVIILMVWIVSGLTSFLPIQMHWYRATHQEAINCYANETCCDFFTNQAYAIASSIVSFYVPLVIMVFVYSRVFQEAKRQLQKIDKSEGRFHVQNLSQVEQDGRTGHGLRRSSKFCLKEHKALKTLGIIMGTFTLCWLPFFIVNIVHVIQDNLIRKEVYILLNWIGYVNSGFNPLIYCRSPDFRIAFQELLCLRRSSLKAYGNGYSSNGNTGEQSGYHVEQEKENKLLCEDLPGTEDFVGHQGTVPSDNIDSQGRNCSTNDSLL
Sequence of Melanocortin receptor 4 (P32245 whole entry): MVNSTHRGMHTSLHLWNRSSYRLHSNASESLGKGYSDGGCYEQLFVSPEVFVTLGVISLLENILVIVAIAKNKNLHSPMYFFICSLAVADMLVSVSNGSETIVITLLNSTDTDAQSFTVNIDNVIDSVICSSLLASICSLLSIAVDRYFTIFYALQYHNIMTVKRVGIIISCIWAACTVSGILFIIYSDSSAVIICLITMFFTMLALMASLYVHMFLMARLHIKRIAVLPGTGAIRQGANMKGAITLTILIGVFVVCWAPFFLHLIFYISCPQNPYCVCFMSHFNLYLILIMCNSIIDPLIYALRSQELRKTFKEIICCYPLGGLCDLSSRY
Sequence of Muscarinic acetylcholine receptor M3 (P20309 whole entry): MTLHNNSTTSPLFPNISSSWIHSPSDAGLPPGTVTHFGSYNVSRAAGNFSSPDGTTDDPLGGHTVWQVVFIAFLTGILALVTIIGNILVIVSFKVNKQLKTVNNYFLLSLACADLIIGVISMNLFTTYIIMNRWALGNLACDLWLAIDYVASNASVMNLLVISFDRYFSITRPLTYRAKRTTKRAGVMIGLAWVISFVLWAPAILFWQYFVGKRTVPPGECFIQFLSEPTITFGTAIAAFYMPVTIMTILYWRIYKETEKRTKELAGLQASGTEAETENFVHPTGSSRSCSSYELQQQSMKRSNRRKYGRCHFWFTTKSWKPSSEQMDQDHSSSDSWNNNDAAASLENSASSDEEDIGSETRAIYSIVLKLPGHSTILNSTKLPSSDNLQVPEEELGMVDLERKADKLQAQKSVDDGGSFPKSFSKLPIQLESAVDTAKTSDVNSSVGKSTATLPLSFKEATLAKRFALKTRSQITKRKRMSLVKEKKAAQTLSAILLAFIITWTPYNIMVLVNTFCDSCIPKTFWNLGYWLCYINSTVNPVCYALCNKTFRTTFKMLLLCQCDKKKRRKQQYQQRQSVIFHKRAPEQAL
Sequence of 5-hydroxytryptamine receptor 2A (P28223 whole entry): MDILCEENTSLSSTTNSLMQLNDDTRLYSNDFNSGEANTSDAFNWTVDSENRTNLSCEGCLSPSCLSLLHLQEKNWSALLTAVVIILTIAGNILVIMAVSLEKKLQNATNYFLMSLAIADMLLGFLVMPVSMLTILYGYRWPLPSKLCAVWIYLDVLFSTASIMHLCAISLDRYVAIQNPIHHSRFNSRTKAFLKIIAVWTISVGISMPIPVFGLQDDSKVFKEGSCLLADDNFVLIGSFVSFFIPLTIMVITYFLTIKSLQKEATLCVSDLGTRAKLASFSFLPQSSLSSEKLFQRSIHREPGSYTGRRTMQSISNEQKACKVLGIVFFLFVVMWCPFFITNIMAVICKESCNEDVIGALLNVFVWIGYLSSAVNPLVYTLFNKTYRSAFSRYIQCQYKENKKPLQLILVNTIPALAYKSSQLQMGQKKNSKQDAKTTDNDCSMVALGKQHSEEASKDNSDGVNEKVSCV
Sequence of Neuronal acetylcholine receptor subunit alpha-4 (P43681 whole entry): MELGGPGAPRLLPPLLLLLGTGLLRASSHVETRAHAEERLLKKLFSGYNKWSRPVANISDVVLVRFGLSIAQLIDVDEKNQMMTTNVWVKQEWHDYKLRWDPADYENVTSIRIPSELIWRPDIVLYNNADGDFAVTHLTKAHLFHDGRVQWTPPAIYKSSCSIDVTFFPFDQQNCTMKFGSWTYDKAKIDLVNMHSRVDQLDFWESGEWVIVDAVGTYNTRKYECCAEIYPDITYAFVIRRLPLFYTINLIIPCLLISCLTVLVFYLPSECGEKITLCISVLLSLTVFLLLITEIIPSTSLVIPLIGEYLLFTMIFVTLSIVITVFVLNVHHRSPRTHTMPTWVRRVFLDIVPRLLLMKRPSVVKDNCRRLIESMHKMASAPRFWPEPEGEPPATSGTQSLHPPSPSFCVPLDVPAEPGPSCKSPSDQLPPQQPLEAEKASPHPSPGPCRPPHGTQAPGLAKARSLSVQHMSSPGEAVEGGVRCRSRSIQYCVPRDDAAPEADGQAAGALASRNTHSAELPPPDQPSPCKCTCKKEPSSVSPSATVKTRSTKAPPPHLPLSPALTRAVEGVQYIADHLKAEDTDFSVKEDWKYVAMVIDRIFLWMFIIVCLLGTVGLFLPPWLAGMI

As usually defined, the AC50 is the midpoint of the concentration-response curve, whichever way the signal moves. As to `O=C(O)c1cccc(-c2noc(-c3ccccc3F)n2)c1`, the AC50 in assay [1] is greater than 10 µM; in assay [2], greater than 30 µM.
On to `CO/N=C(\C(=O)N[C@@H]1C(=O)N2C(C(=O)OCOC(=O)C(C)(C)C)=C(C)CS[C@H]12)c1csc(N)n1`, for which the half-maximal activity concentration (AC50) in assay [3], in assay [4] and in assay [5] was greater than 30 µM throughout.
As to `NS(=O)(=O)c1cc(-c2nnn[nH]2)c(NCc2cccs2)cc1Cl` [AZOSEMIDE], the AC50 (in assay [3]; in assay [1]; on Progesterone receptor; in assay [5]; in assay [6]; on Endothelin-1 receptor) was greater than 30 µM throughout. Also, the AC50 in assay [7] and in assay [2] was greater than 30 µM throughout.
For the compound `O=C(Cn1ccnc1[N+](=O)[O-])NCc1ccccc1` [BENZNIDAZOLE], the AC50 (in assay [3]; in assay [1]; on Progesterone receptor; in assay [5]; in assay [6]; on Endothelin-1 receptor) was greater than 30 µM each time. The AC50 in [7] and in assay [2] was greater than 30 µM each time.
As to `C[N+](C)(C)CC(=O)O` [BETAINE], the half-maximal activity concentration (AC50) (in assay [3]; in assay [1]; at Progesterone receptor; in assay [4]; in assay [5]; in assay [6]) was greater than 30 µM in each case. The AC50 (at Endothelin-1 receptor; in assay [7]; in assay [2]) was greater than 30 µM in each case.
Turning to `CCCC(=O)N1CCCN(c2nc(N)c3cc(OC)c(OC)cc3n2)CC1` [BUNAZOSIN], the concentration at half-maximal activity (AC50) (in assay [3]; in assay [1]; on Progesterone receptor; in assay [4]; in assay [5]; in assay [6]) was greater than 30 µM in each case. Further, the AC50 (at Endothelin-1 receptor; in assay [7]) was greater than 30 µM each time.
Regarding `C[N+](C)(C)CCOC(N)=O` [CARBAMOYLCHOLINE], the AC50 in [1] was greater than 10 µM; at Progesterone receptor, greater than 10 µM; on Cannabinoid receptor 1, greater than 10 µM; in [4] it was greater than 30 µM; in [6], greater than 10 µM; at Melanocortin receptor 4, greater than 10 µM. Also, the AC50 in [7] and in assay [2] was greater than 10 µM each time.
As for `N[C@@H](CSCC(=O)O)C(=O)O` [CARBOCYSTEINE], the concentration at half-maximal activity (AC50) (in assay [3]; in [1]; at Progesterone receptor; in [4]; in assay [5]; in assay [6]) was greater than 30 µM in each case. In addition, the AC50 (on Endothelin-1 receptor; in [7]; in assay [2]) was greater than 30 µM each time.
As to `COCC1=C(C(=O)OC(C)OC(=O)OC(C)C)N2C(=O)[C@@H](NC(=O)/C(=N\OC)c3csc(N)n3)[C@H]2SC1` (some centres undefined) [CEFPODOXIME PROXETIL], the AC50 in assay [3], in assay [4] and in assay [5] was greater than 30 µM each time.
For the compound `NS(=O)(=O)c1cc2c(cc1Cl)NC(CC1CCCC1)NS2(=O)=O` (centres undefined) [CYCLOPENTHIAZIDE], the AC50 in assay [3], in [4] and in [5] was greater than 30 µM throughout.
On to `N/N=c1/cc2c(n[nH]1)CCN(C(=O)c1ccccc1)C2` [ENDRALAZINE], for which the AC50 in [3], in assay [4] and in [5] was greater than 30 µM in each case.
With `CC(C(O)c1ccc(O)cc1)N1CCC(Cc2ccccc2)CC1` (centres undefined) [IFENPRODIL], the AC50 in [3] is greater than 30 µM; in assay [1], greater than 30 µM; on Progesterone receptor, greater than 30 µM; in assay [5], 9.6 µM; in assay [6], greater than 30 µM; on Endothelin-1 receptor, greater than 30 µM. For the same compound, the AC50 in [7] and in assay [2] was greater than 30 µM each time.
Compound `CS(=O)(=O)Nc1cc2occ(NC=O)c(=O)c2cc1Oc1ccccc1` [IGURATIMOD] had an AC50 on Progesterone receptor greater than 30 µM.
Regarding `CC(=O)N(CC(O)CO)c1c(I)c(C(=O)NCC(O)CO)c(I)c(C(=O)NCC(O)CO)c1I` (centres undefined) [IOHEXOL], the AC50 in assay [3] is greater than 30 µM; in assay [1] it was greater than 10 µM; in assay [4], greater than 10 µM; in assay [5], greater than 30 µM; in [6] it was greater than 30 µM; on Melanocortin receptor 4, greater than 30 µM. Also, the AC50 in assay [7] and in assay [2] was greater than 30 µM in each case.
As to `CN(CCCN1c2ccccc2CCc2ccccc21)CC(=O)c1ccc(Cl)cc1` [LOFEPRAMINE], the half-maximal activity concentration (AC50) in assay [1] is greater than 30 µM; at Cannabinoid receptor 1 it was 6.9 µM; in assay [5], 6.6 µM; in assay [6], greater than 30 µM; at Endothelin-1 receptor, greater than 30 µM; in assay [7], greater than 30 µM. The AC50 in assay [2] came to 20 µM.
As for `CN1C(=O)N(C)C2C1N(C)C(=O)N2C` (centres undefined) [MEBICAR], the AC50 in assay [3], in assay [4] and in assay [5] was greater than 30 µM in each case.
For the compound `CC(=O)O[C@]1(C(C)=O)CC[C@H]2[C@@H]3C[C@H](C)C4=CC(=O)CC[C@]4(C)[C@H]3CC[C@@]21C` [MEDROXYPROGESTERONE ACETATE], the concentration at half-maximal activity (AC50) (in [1]; in [6]; on Endothelin-1 receptor; in assay [7]) was greater than 30 µM in each case.
For the compound `Nc1ccc(/N=N/c2ccccc2)c(N)n1` [PHENAZOPYRIDINE], the concentration at half-maximal activity (AC50) in assay [3] was 3.6 µM; in [5], greater than 30 µM.
With `CN(C)CCCN1c2ccccc2Sc2ccccc21` [PROMAZINE], the half-maximal activity concentration (AC50) on Cannabinoid receptor 1 was greater than 10 µM; in [4] it was greater than 10 µM; in assay [6], greater than 30 µM; on Endothelin-1 receptor it was greater than 30 µM; at Melanocortin receptor 4 it was greater than 30 µM; in [7], greater than 30 µM. In assay [2], half-maximal activity (AC50) was put at 7.6 µM.
